Test results as given in patent publication US20240122934A1, “COMPOSITIONS AND METHODS OF TREATMENT FOR INHIBITING CAPILLARY TUBE REGRESSION” (University of South Florida, priority 2019, published 2024).
Entries after “also recorded” stand apart in the source; their conditions may differ.

Assays:
Format in all cases: cell-based, human
EC sprouts and tubes = test: angiogenic sprouting assay (ECs invading from monolayer surface); details: for EC tube regression by signaling-mimicking drugs: Frax486 2.5 μM, vinblastine 100 nM, 24 hr
Experimental: (A) ECs were seeded onto a monolayer surface and then allowed to invade into the gels to form tubes over a 48 hr period. At this time, cultures were then treated with IL-1β or TNFα and in the absence or presence of FIST. Cultures were fixed after 24 hr, stained and photographed to visualize the monolayer surface and the underlying sprouts and tubes. (B) Cultures were established just like in A and then the Pak2 inhibitor, Frax486 (2.5 μM) or the microtubule depolymerizing agent, vinblastine (100 nM), were added to media in the presence or absence of FIST. Cultures were fixed after 24 hr, stained and photographed. Bar equals 200 μm.
Studies to define the factors and signals that promote endothelial cell (EC) lumen and tube formation, EC sprouting and EC-pericyte tube co-assembly have been performed under serum-free defined conditions so that the functional role of individual molecules that regulate these processes can be assessed. Disclosed herein, the factors that control capillary regression are defined. Capillary regression is a process that has been largely neglected despite the likelihood that it may present a fundamental pathogenic feature of major human diseases where capillary disassembly and regression are known to occur (i.e. hypertension, diabetes, ischemic disease in many tissues, neurodegenerative diseases, and malignant cancer). […] EC tube networks were allowed to form for 48 hr. (vasculogenesis type of assay) and then added these agents in dose-response experiments, showing that they potently induce EC tube regression (at low ng levels) (FIG. 1). Real-time movies were performed to visualize these pro-regressive activities. This experimental approach has utilized assays that mimic vasculogenesis or angiogenic sprouting and these factors induce regression equally well in both assay systems. […] These studies have been performed primarily in 3D collagen matrices, but the same result is also observed in 3D fibrin matrices.

EC tube networks [1] = test: 3D collagen EC tube regression assay; details: for effect of added HDAC6 inhibitor on pharmacologic rescue: 10 μM added to FISSB2, mediators 10 ng/ml, thrombin 1 μg/ml; for effect of added HDAC6 inhibitor on pharmacologic rescue / EC tube regression (pro-regressive activity): 24 hr; for EC tube regression in screen of growth factors and cytokines: 40 and 10 ng/ml, 48 hr EC tube networks; for EC tube regression (pro-regressive activity): factor added to established 48 hr EC tube networks
Experimental: (A) EC cultures with tube networks were established for 48 hr followed by the addition of indicated cytokines or thrombin (Thr) for 24 hr. IL-1β and IL-la were added at 1 ng/ml, TNFα at 3.16 ng/ml and thrombin at 1 μg/ml. Bars equal 100 or 200 μm. (B,C,D) EC tube networks were treated with the indicated cytokines and varying concentrations in dose-response analyses and in the presence or absence of thrombin added at 1 μg/ml. After 24 hr, cultures were fixed, stained and quantitated for EC lumen area per field. These curves are from a representative experiment using triplicate wells for each condition. The values (±SD) are derived from analyzed fields (n=15) where total lumen and tube area was measured. Asterisks indicate significance at p<0.05 compared to control and squares indicate significance at p<0.05 compared to the cytokine treatments alone.
ECs (passages 3-6) and pericytes (passages 3-12) were cultured as previously described^49,50. THP-1 cells were cultured in RPMI-1640-20% FCS. THP-1-T macrophages were differentiated for 72 hr. with 50 ng/ml of phorbol ester in RPMI-20% FCS, and then treated for 48 hr. in RPMI-2% FCS prior to adding TLR ligands. THP-1-VT macrophages were induced to differentiate for 72 hr. with 10^-7 M vitamin D3 (Calcitriol) in RPMI-20% FCS, followed by 48 hr. with phorbol ester in RPMI-2% FCS prior to adding TLR ligands.
(§1) ECs or ECs with pericytes were suspended in 3D collagen matrices and incubated at 37° C. in serum-free defined media as described^9,50,51. Recombinant factors or THP-1 conditioned media were added at the indicated doses to existing 48 or 72 hr. cultures with EC only or EC-pericyte tube networks, respectively. After 24 or 48 hr. for EC only or EC-pericyte tubes, respectively, cultures were fixed in 3% glutaraldehyde or 3% paraformaldehyde. EC tube areas were traced and quantitated as described. In some cases, neutralizing antibodies were added (10 μg/ml). For signaling experiments, lysates were prepared from control vs. regressing 3D cultures at different time points.

EC tube networks [2] = test: Western blots of lysates from regressing 3D EC cultures (regression signaling signature); details: 24-hr. time course, compared to control EC tubes
Experimental: (A,B) ECs tube networks were treated with the indicated factors vs. control and at different time points, lysates were prepared from the 3D cultures. Western blots were performed using the different indicated antibodies. (C) Schematic illustrating findings that define a capillary regression signaling signature.
THP-T macrophages were treated with Pam3CSK4 (Pam) or LPS and conditioned medium was added at a 1:20 or 1:50 dilution, respectively, to EC tube networks. Control and IL10-treated cultures were compared with the conditioned medium treatments within the same experiment. At the indicated time points, lysates were obtained, and Western blots were performed with the indicated antibodies.
as §1

[3] = test system: EC-pericyte tube networks; test: EC-pericyte co-culture regression assay; details: added to 72 hr co-cultures
Experimental: (A) EC-pericyte (GFP-labeled) co-cultures were established and allowed to form for 72 hr and at this time, the combination of IL-1β (10 ng/ml), TNFα (10 ng/ml) and thrombin (11 μg/ml) were added in combination compared to control and real-time movies were performed. Light and fluorescent image overlays over time are shown in representative fields. Arrowheads indicate clusters of pericytes that accumulate together during regression responses in response to these three factors in combination. After 48 hr, fixed cultures were stained for CD31 to detect ECs and fluorescence image overlays were performed. (B) The same set up was established as in A, except that each individual factor and combination of factors were added. After 48 hr, the cultures were fixed and stained for CD31. Confocal images were obtained, and fluorescence overlay images are shown.
(A) EC-pericyte co-cultures were established for 72 hr, and then were left untreated or with IL-1β (10 ng/ml), TNFα (10 ng/ml), and thrombin (11 μg/ml) in combination. After 48 hr, cultures were fixed and stained with CD31, confocal microscopy and 3D reconstruction of the images allowed for an upright and side view. (B) EC-pericyte tube networks were treated with the indicated single and combined factors and after fixation, EC tube area was quantitated. […] The values (±SD) were obtained from analyzed fields (n=15) where total lumen and tube area was measured. Asterisks indicate increased significance at p<0.05 compared to control, the squares indicate decreased significance at p<0.05 relative to the single factor conditions and the triangle indicates significance at p<0.05 relative to the double factor conditions. (C) EC-pericyte tube networks were treated with indicated combinations of factors. After 48 hr, total GFP fluorescence per well was quantitated as a measure of pericyte number since they are GFP-labeled. […] Asterisks indicate significance at p<0.05 compared to control.
as §1

Molecule: CCn1c(=O)c(-c2ccc(Cl)cc2Cl)cc2cnc(Nc3ccc(N4CCNCC4)c(F)c3)nc21 [Frax486, reference compound]
- EC tube regression by signaling-mimicking drugs (EC sprouts and tubes): led to marked regression

Molecule: C[C@@H](N)[C@H]1CC[C@H](C(=O)Nc2ccncc2)CC1 [Y27632, reference compound]
- effect of adding drug to FISTSB on rescue (EC tube networks [1]; FISTSBY vs FISTSB): did not enhance the ability of FISTSB to rescue capillary regression

Molecule: O=C(CCCCCCC(=O)Nc1ccc([C@H]2O[C@@H](CSc3nc(-c4ccccc4)c(-c4ccccc4)o3)C[C@@H](c3ccc(CO)cc3)O2)cc1)NO [tubacin, reference compound]
- effect of added HDAC6 inhibitor on pharmacologic rescue (EC tube networks [1]): enhance the pharmacologic rescue of capillary regression induced by pro-inflammatory mediators

Molecule: CN1CCc2c(c3ccccc3n2Cc2ccc(C(=O)NO)cc2)C1 [tubastatin, reference compound]
- effect of added HDAC6 inhibitor on pharmacologic rescue (EC tube networks [1]): enhance the pharmacologic rescue of capillary regression induced by pro-inflammatory mediators

Molecule: CC[C@]1(O)C[C@@H]2CN(CCc3c([nH]c4ccccc34)[C@@](C(=O)OC)(c3cc4c(cc3OC)N(C)[C@H]3[C@@](O)(C(=O)OC)[C@H](OC(C)=O)[C@]5(CC)C=CCN6CC[C@]43[C@@H]65)C2)C1 [vinblastine, reference compound]
- EC tube regression by signaling-mimicking drugs (EC sprouts and tubes): led to marked regression

Molecule: IFNα
- EC tube regression in screen of growth factors and cytokines (EC tube networks [1]): did not have any activity

Molecule: IFNγ: interferon gamma
- EC tube regression in screen of growth factors and cytokines (EC tube networks [1]): demonstrated significantly increased regression at both doses

Molecule: IL-1β: interleukin-1 beta, pro-inflammatory cytokine
- degeneration of sprouts and EC monolayer (EC sprouts and tubes; angiogenic sprouting system): induce degeneration of the invading sprouts, but also the EC monolayer surface where the sprouts originated
- ICAM-1 and VCAM-1 levels (EC tube networks [2]): Strong upregulation of ICAM-1 and VCAM-1
- phospho-Pak2, phospho-cofilin, acetylated tubulin, procaspase3 levels (EC tube networks [2]): decreased levels of phospho-Pak2, phospho-cofilin, acetylated tubulin and procaspase3
- phospho-p38, phospho-JNK, phospho-MLC2 levels (EC tube networks [2]): increased levels of phospho-p38, phospho-JNK, and phospho-MLC2
- EC tube regression in EC-pericyte co-cultures [3]: marked tube regression in response to each factor individually and, also in combination
- pericyte numbers [3]: an increase in pericyte numbers
- EC tube regression in screen of growth factors and cytokines (EC tube networks [1]): more potent pro-regressive factors than the other factors described herein
- EC tube regression (pro-regressive activity) (EC tube networks [1]): directly cause capillary tube collapse and regression

Molecule: IL-6: cytokine co-induced in macrophages along with IL-1 and TNF
- EC tube regression (pro-regressive activity) (EC tube networks [1]): does not have pro-regressive activity; also recorded: had no regressive effect

Molecule: IL-13: cytokine
- EC tube regression in screen of growth factors and cytokines (EC tube networks [1]): demonstrated significantly increased regression at both doses

Molecule: TGFβ1: growth factor
- EC tube regression in screen of growth factors and cytokines (EC tube networks [1]): demonstrated significantly increased regression at both doses

B1: IL-4: interleukin-4 (protein, UniProt P05112 25-153, looked up)
Interleukin-4: HKCDITLQEIIKTLNSLTEQKTLCTELTVTDIFAASKNTTEKETFCRAATVLRQFYSHHEKDTRCLGATAQQFHRHKQLIRFLKRLDRNLWGLAGLNSCPVKEANQSTLENFLERLKTIMREKYSKCSS
- EC tube regression in screen of growth factors and cytokines (EC tube networks [1]): demonstrated significantly increased regression at both doses

B2: Light: pro-regressive factor identified in the cytokine screen (protein, UniProt O43557 83-240, looked up)
Tumor necrosis factor ligand …: LIQERRSHEVNPAAHLTGANSSLTGSGGPLLWETQLGLAFLRGLSYHDGALVVTKAGYYYIYSKVQLGGVGCPLGLASTITHGLYKRTPRYPEELELLVSQQSPCGRATSSSRVWWDSSFLGGVVHLEAGEKVVVRVLDERLVRLRDGTRSYFGAFMV
- EC tube regression in screen of growth factors and cytokines (EC tube networks [1]): demonstrated significantly increased regression at both doses

B3: BMP-9: growth factor (protein, UniProt Q9UK05 320-429, looked up)
Growth/differentiation factor …: SAGAGSHCQKTSLRVNFEDIGWDSWIIAPKEYEAYECKGGCFFPLADDVTPTKHAIVQTLVHLKFPTKVGKACCVPTKLSPISVLYKDDMGVPTLKYHYEGMSVAECGCR
- EC tube regression in screen of growth factors and cytokines (EC tube networks [1]): demonstrated significantly increased regression at both doses

B4: BMP-10: growth factor (protein, UniProt O95393 317-424, looked up)
Bone morphogenetic protein 10: NAKGNYCKRTPLYIDFKEIGWDSWIIAPPGYEAYECRGVCNYPLAEHLTPTKHAIIQALVHLKNSQKASKACCVPTKLEPISILYLDKGVVTYKFKYEGMAVSECGCR
- EC tube regression in screen of growth factors and cytokines (EC tube networks [1]): demonstrated significantly increased regression at both doses

B5: TGFβ2: growth factor (protein, UniProt P61812 303-414, looked up)
Transforming growth factor …: ALDAAYCFRNVQDNCCLRPLYIDFKRDLGWKWIHEPKGYNANFCAGACPYLWSSDTQHSRVLSLYNTINPEASASPCCVSQDLEPLTILYYIGKTPKIEQLSNMIVKSCKCS
- EC tube regression in screen of growth factors and cytokines (EC tube networks [1]): demonstrated significantly increased regression at both doses

B6: IL-la: IL-1 isoform, pro-regressive cytokine (protein, UniProt P01583 113-271, looked up)
Interleukin-1 alpha: SAPFSFLSNVKYNFMRIIKYEFILNDALNQSIIRANDQYLTAAALHNLDEAVKFDMGAYKSSKDDAKITVILRISKTQLYVTAQDEDQPVLLKEMPEIPKTITGSETNLLFFWETHGTKNYFTSVAHPNLFIATKQDYWVCLAGGPPSITDFQILENQA
- EC tube regression (pro-regressive activity) (EC tube networks [1]): directly cause capillary tube collapse and regression; also recorded: powerful ability to induce EC tube regression
